Type in all cases: cell-based
Data set [1] relates to Erythrocytes from fresh sheep blood. Kind of data set: in vitro. The method, then: The toxicity of WZ1–WZ4 compounds towards red blood cells was tested using the erythrocyte lysis assay (ELA). Erythrocytes from fresh sheep blood (BioMaxima S.A., Poland) were centrifuged and washed with 0.85% NaCl. Next, 100 μL of a 2% suspension of red blood cells in physiological saline was added to the wells of microtiter plate. The double dilutions of compounds WZ1–WZ4 were prepared in the range of 2000–15.62 μg/mL. Appropriate controls were used to assess the hemolytic potential of tested compounds, i.e., 100% lysis of erythrocytes using 4% Triton X-100 (Pol-Aura, Różnowo, Poland) and 0% lysis in saline solution. Next, all sample plates were incubated (1 h at 37 °C), centrifuged for 10 min to separate unlysed red blood cells, and the supernatant was placed in a new plate. The ELA is a biological test by which the lytic response can be measured spectrophotometrically (at a wavelength of 450 nm) by the amount of hemoglobin released. The hemolysis percentage was calculated according to the following equation:(1) % Hemolysis = A450 of test compound treated sample − A450 of buffer treated sample/A450 of 4% Triton X100 treated samples − A450 of buffer treated sample × 100

The test system of data set [2] is Enterococcus faecalis ATCC 29212. In words: Broth microdilution antimicrobial activity. Particulars: Enterococcus faecalis ATCC 29212. An excerpt: (§1) Reference strains of microorganisms that came from American Type Culture Collection (ATCC) (Manassas, VA, USA) were used for this study. The representative Gram-positive bacteria were as follows: Staphylococcus aureus ATCC 25923, Staphylococcus aureus ATCC 29213, Staphylococcus aureus ATCC 43300, Staphylococcus epidermidis ATCC 12228, Enterococcus faecalis ATCC 29212, Micrococcus luteus ATCC 10240, Bacillus subtilis ATCC 6633 and Bacillus cereus ATCC 10876. While, those of Gram-negative bacteria were as follows: Bordetella bronchiseptica ATCC 4617, Escherichia coli ATCC 25922, Klebsiella pneumoniae ATCC 13883, Proteus mirabilis ATCC 12453, Salmonella Typhimurium ATCC 14028 and Pseudomonas aeruginosa ATCC 9027. Moreover, the following fungi belonging to yeasts were used: Candida albicans ATCC 10231, Candida albicans ATCC 2091, Candida parapsilosis ATCC 22019, Candida glabrata ATCC 90030 and Candida krusei ATCC 14243.
(§2) The new compounds WZ1–WZ4 were assayed for both antibacterial and antifungal activity using the broth microdilution method in accordance with the European Committee on Antimicrobial Susceptibility Testing (EUCAST) and Clinical and Laboratory Standards Institute (CLSI) guidelines. The microorganisms were grown at 35 °C for 18–24 h on appropriate media (nutrient agar and Sabouraud for bacteria and fungi, respectively) (BioMaxima S.A., Lublin, Poland). Next, microbial suspensions with an optical density of 0.5 McFarland standard scale (in sterile 0.85% NaCl) were prepared. In turn, the tested compounds were initially diluted at 50 mg/mL in dimethyl sulfoxide (DMSO) and the broth microdilution method was used to assess their minimum inhibitory concentrations (MICs). For these studies, selective broth Mueller-Hinton (MH) (BioMaxima S.A., Lublin, Poland) and RPMI (Roswell Park Memorial Institute) 1640 with MOPS (3-(N-Morpholino)propanesulfonic acid) (Sigma-Aldrich Chemicals, St. Louis, MO, USA) were used for bacteria and fungi, respectively. The antimicrobial effect of compounds WZ1–WZ4 was determined in the concentration range from 2000 to 0.98 µg/mL.
(§3) Then, the microbial suspensions were introduced into each well of the microplate and incubated for 18–24 h at 35 °C. […] The reference drugs ciprofloxacin or vancomycin (against bacteria) and nystatin (against fungi) (Sigma-Aldrich Chemicals, St. Louis, MO, USA) were also used. Next, the values of the minimum bactericidal concentration (MBC) and minimum fungicidal concentration (MFC) of WZ1–WZ4 were assessed. For this purpose, the cultures from each MIC determination well were transferred to a suitable solid medium and incubated under appropriate conditions. The lowest concentrations of compounds without microbial growth were read as MBC or MFC. The studies were performed in triplicate and representative data were gathered.
(§4) In turn, the MBC/MIC or MFC/MIC ratios were used to assess bactericidal/fungicidal (MBC/MIC or MFC/MIC ≤ 4) and bacteriostatic/fungistatic (MBC/MIC or MFC/MIC > 4) effect of these compounds [93].
Background: In broth dilution the organism is exposed to a series of concentrations in liquid medium.

Data set [3] has as its system Bacillus cereus ATCC 10876. Kind of data set: Broth microdilution antimicrobial activity.
Source text: as §1, §2, §3, §4

Data set [4] relates to Staphylococcus aureus ATCC 43300. In words: Broth microdilution antimicrobial activity. Particulars: Staphylococcus aureus ATCC 43300.
Source text: as §1, §2, §3, §4

The test system of data set [5] is Salmonella Typhimurium ATCC 14028. Kind of data set: Broth microdilution antimicrobial activity.
Source text: as §1, §2, §3, §4

For data set [6], the system named is Staphylococcus aureus ATCC 25923. In words: Broth microdilution antimicrobial activity.
Source text: as §1, §2, §3, §4

For data set [7], the system named is Staphylococcus epidermidis ATCC 12228. Kind of data set: Broth microdilution antimicrobial activity.
Source text: as §1, §2, §3, §4

In data set [8] the test system is Pseudomonas aeruginosa ATCC 9027. In words: Broth microdilution antimicrobial activity.
Source text: as §1, §2, §3, §4

Data set [9] relates to Proteus mirabilis ATCC 12453. Kind of data set: Broth microdilution antimicrobial activity.
Source text: as §1, §2, §3, §4

Data set [10] has as its system Staphylococcus aureus ATCC 29213. In words: Broth microdilution antimicrobial activity. Particulars: Staphylococcus aureus ATCC 29213.
Source text: as §1, §2, §3, §4

Data set [11] concerns Bordetella bronchiseptica ATCC 4617. In words: Broth microdilution antimicrobial activity.
Source text: as §1, §2, §3, §4

Data set [12] concerns Klebsiella pneumoniae ATCC 13883. In words: Broth microdilution antimicrobial activity.
Source text: as §1, §2, §3, §4

Data set [13] deals with Bacillus subtilis ATCC 6633. Kind of data set: Broth microdilution antimicrobial activity.
Source text: as §1, §2, §3, §4

For data set [14], the system named is Escherichia coli ATCC 25922. In words: Broth microdilution antimicrobial activity.
Source text: as §1, §2, §3, §4

The subject of data set [15] is Micrococcus luteus ATCC 10240. In words: Broth microdilution antimicrobial activity.
Source text: as §1, §2, §3, §4

Data set [16] concerns Candida parapsilosis ATCC 22019. In words: Broth microdilution antimicrobial activity.
Source text: as §1, §2, §3, §4

The subject of data set [17] is Candida albicans ATCC 2091. In words: Broth microdilution antimicrobial activity.
Source text: as §1, §2, §3, §4

Data set [18] concerns Candida albicans ATCC 10231. Kind of data set: Broth microdilution antimicrobial activity.
Source text: as §1, §2, §3, §4

For data set [19], the system named is Candida glabrata ATCC 90030. In words: Broth microdilution antimicrobial activity.
Source text: as §1, §2, §3, §4

The subject of data set [20] is Candida krusei ATCC 14243. In words: Broth microdilution antimicrobial activity.
Source text: as §1, §2, §3, §4

Consider four molecules from publication PMC10747733, “N-Substituted 2-(Benzenosulfonyl)-1-Carbotioamide Derivatives Exert Antimicrobial and Cytotoxic Effects via Aldehyde Dehydrogenase Pathway: Synthesis, In Silico and In Vitro Studies” (Pharmaceuticals, 2023).

≈ marks a conversion by molar mass, not a printed value.

In [1], Triton X-100 [reference compound] returned an erythrocyte lysis of 100%.

In the case of `CN[C@H](CC(C)C)C(=O)N[C@H]1C(=O)N[C@@H](CC(N)=O)C(=O)N[C@H]2C(=O)N[C@H]3C(=O)N[C@H](C(=O)N[C@H](C(=O)O)c4cc(O)cc(O)c4-c4cc3ccc4O)[C@H](O)c3ccc(c(Cl)c3)Oc3cc2cc(c3O[C@@H]2O[C@H](CO)[C@@H](O)[C@H](O)[C@H]2O[C@H]2C[C@](C)(N)[C@H](O)[C@H](C)O2)Oc2ccc(cc2Cl)[C@H]1O` [VA, vancomycin, reference compound], in [2], the MBC worked out at 1.95 µg/mL (≈ 1.35 µM), the MBC/MIC was 2 and it took 0.98 µg/mL (≈ 0.676 µM) to inhibit growth (MIC).

Turning to `O=C(O)c1cn(C2CC2)c2cc(N3CCNCC3)c(F)cc2c1=O` [CIP, ciprofloxacin, reference compound], the MBC/MIC in data set [3] is listed as 2; in data set [4], 1; in [5] it was 1; in [6], 1; in data set [7] it was 1; in data set [8], 2. Moreover, the MBC/MIC in data set [9] is listed as 1; in data set [10] it was 1; in data set [11] it was 1; in [12] it was 2; in data set [13] it was 1; in data set [14], 2. In addition, the MBC/MIC in data set [15] worked out at 2. Further, the MBC in data set [3] (ATCC10876) turned out to be 0.12 µg/mL (≈ 0.362 µM); in data set [4] (ATCC43300), 0.24 µg/mL (≈ 0.724 µM); in data set [5] (Salmonella enterica), 0.06 µg/mL (≈ 0.181 µM); in data set [6] (ATCC25923) it was 0.48 µg/mL (≈ 1.45 µM); in [7] (ATCC12228), 0.12 µg/mL (≈ 0.362 µM); in [8] (ATCC9027), 0.98 µg/mL (≈ 2.96 µM). For the same molecule, the MBC in [9] (ATCC12453) came out at 0.03 µg/mL (≈ 0.0905 µM); in data set [10] (ATCC29213), 0.48 µg/mL (≈ 1.45 µM); in data set [11] (ATCC4617) it was 0.98 µg/mL (≈ 2.96 µM); in data set [12] (ATCC13883), 0.24 µg/mL (≈ 0.724 µM); in data set [13] (ATCC6633), 0.03 µg/mL (≈ 0.0905 µM); in data set [14] (ATCC25922), 0.008 µg/mL (≈ 0.0241 µM). The same molecule gave an MBC in data set [15] (ATCC10240) of 1.95 µg/mL (≈ 5.89 µM). Besides, the MIC in [3] (ATCC10876) is 0.06 µg/mL (≈ 0.181 µM); in data set [4] (ATCC43300), 0.24 µg/mL (≈ 0.724 µM); in data set [5] (Salmonella enterica) it was 0.06 µg/mL (≈ 0.181 µM); in data set [6] (ATCC25923), 0.48 µg/mL (≈ 1.45 µM); in data set [7] (ATCC12228), 0.12 µg/mL (≈ 0.362 µM); in [8] (ATCC9027) it was 0.48 µg/mL (≈ 1.45 µM). The MIC in data set [9] (ATCC12453) stood at 0.03 µg/mL (≈ 0.0905 µM); in [10] (ATCC29213), 0.48 µg/mL (≈ 1.45 µM); in [11] (ATCC4617), 0.98 µg/mL (≈ 2.96 µM); in data set [12] (ATCC13883) it was 0.12 µg/mL (≈ 0.362 µM); in data set [13] (ATCC6633), 0.03 µg/mL (≈ 0.0905 µM); in data set [14] (ATCC25922) it was 0.004 µg/mL (≈ 0.0121 µM). The molecule further registered an MIC in data set [15] (ATCC10240) of 0.98 µg/mL (≈ 2.96 µM).

With `C[C@@H]1[C@H](O)[C@@H](C)/C=C/C=C/CC/C=C/C=C/C=C/C=C/C(O[C@H]2O[C@H](C)[C@@H](O)[C@H](N)[C@@H]2O)CC2O[C@](O)(CC(O)C(O)CCC(O)CC(O)CC(O)CC(=O)O[C@H]1C)CC(O)C2C(=O)O` (stereo partly shown) [NY, nystatin, reference compound], the MFC in [16] was 0.48 µg/mL (≈ 0.518 µM); in data set [17], 0.24 µg/mL (≈ 0.259 µM); in [18], 0.48 µg/mL (≈ 0.518 µM); in [19], 0.48 µg/mL (≈ 0.518 µM); in data set [20], 0.24 µg/mL (≈ 0.259 µM). The MFC/MIC in [16] stood at 2; in data set [17] it was 1; in data set [18], 1; in data set [19], 2; in data set [20], 1. Moreover, the MIC in data set [16] worked out at 0.24 µg/mL (≈ 0.259 µM); in data set [17] it was 0.24 µg/mL (≈ 0.259 µM); in data set [18] it was 0.48 µg/mL (≈ 0.518 µM); in data set [19], 0.24 µg/mL (≈ 0.259 µM); in data set [20] it was 0.24 µg/mL (≈ 0.259 µM).

As usually defined, the MBC is the smallest concentration meeting the test's criterion for killing. The MIC is the lowest concentration that inhibits growth of the organism. Higher therefore signals weaker potency. For orientation: MFC means the smallest concentration meeting the test's criterion for killing the fungus.
